Source: US7375130B2, “Antidiabetic compounds comprising benzofuran and benzothiophene derivatives” (Merck Patent Gesellschaft mit beschrankter Haftung, priority 2003, dated 2008)

What was measured:
INS1 = assay: Insulin secretion test (SEC INS1) according to Endocrinology, 1992 vol. 130 (1) pp. 167-178; assay type: cell-based; conditions: Rattus norvegicus, compounds tested at 10^-5 M, read-out: SEC INS1 (insulin-secreting activity)
Protocol: Insulin Secretion Test According to the Method Described in Endocrinology, 1992 vol. 130 (1) pp. 167-178
The compounds according to the invention were tested at 10^−5 M.
The insulin-secreting activities are collated in Table B.

[1] = test system: isolated islets of Langerhans; assay: Insulin secretion in isolated rat islets of Langerhans in static incubation, as a function of the glucose concentration; assay type: cell-based; conditions: 90 minutes incubation, RIA, relative to glucose alone; for Insulin secretion stimulation factor, Product + G 2.8 mM: glucose 2.8 mM; for Insulin secretion stimulation factor, Product + G 8 mM: glucose 8 mM
Protocol: Study of the Activity on Isolated Rat Islets
Effect of the chemical compounds on insulin secretion as a function of the glucose concentration, in vitro, in isolated islets of Langerhans in static incubation (Table C):
The islets of Langerhans obtained by digestion of exocrine pancreatic tissue with collagenase, and then purified on Ficoll gradient, are incubated for 90 minutes in the presence of two concentrations of glucose, (2.8 mM or 8 mM), in the presence or absence of the chemical compound. The insulin secretion is assayed by RIA in the incubation medium.
The potential of the various chemical compounds to stimulate insulin secretion is estimated by calculating the stimulation factor*.
A compound stimulates the secretion of insulin if this factor is greater than or equal to 130% for a given dose of glucose.
where: • G=secretion of insulin (pmol/min. islet) in the presence of glucose alone • G+product=secretion of insulin (pmol/min. islet) in the presence of the same concentration of glucose and of the test chemical compound.

SMILES	activity at 10 µM (INS1) [%]	other results
CCOC(=O)c1sc2ccccc2c1OCc1cccc(C#N)c1 [Product 29]	249	
CCOC(=O)c1sc2ccccc2c1OC(C)C(=O)c1ccccc1 (stereo not drawn) [Product 10]	225	
CCOC(=O)c1sc2ccccc2c1OCC(=O)c1ccc2ccccc2c1 [Product 13]	240	
CCOC(=O)c1sc2ccccc2c1OCC(=O)c1ccc(F)cc1 [Product 7]	257	
CCOC(=O)c1sc2ccccc2c1OCC(=O)c1cccc(OC)c1 [Product 8]	252	
CCOC(=O)c1sc2ccccc2c1OCC(=O)C(C)(C)C [Product 12]	230	Insulin secretion stimulation factor, Product + G 2.8 mM ([1]; dose 10^-5 M): 93%; Insulin secretion stimulation factor, Product + G 8 mM ([1]; dose 10^-5 M): 186%; Insulin secretion stimulation factor, Product + G 2.8 mM ([1]; dose 10^-6 M): 90%; Insulin secretion stimulation factor, Product + G 8 mM ([1]; dose 10^-6 M): 189%
CCOC(=O)c1sc2ccccc2c1OCC(=O)c1ccc(OC)cc1OC [Product 11]	258	
CCOC(=O)c1sc2ccccc2c1OCC(=O)c1ccccc1OC [Product 3]	320	
